# Measured values reported in patent US12343326B2, “Psychoactive medicines and their use for treating psychiatric and neurological conditions and disorders” (Transcend Therapeutics, Inc., priority 2021, dated 2025).
# How the values were obtained:
# Assay in all cases: β-arrestin based GPCR screen (PathHunter / GPCRmax), agonist mode
# Assay type in all cases: cell-based
# Parameters in all cases: host or cells: PathHunter cell lines
# [1] = target: 168 GPCRs (Homo sapiens, UniProt P43115)
# Description: (§1) For agonist determination, cells were incubated with sample to induce response. […] Vehicle concentration was 1%.
# [2] = target: T1, 168 GPCRs (Homo sapiens, UniProt P32248); conditions: CCR7, Agonist
# T1 sequence (P32248 25-378): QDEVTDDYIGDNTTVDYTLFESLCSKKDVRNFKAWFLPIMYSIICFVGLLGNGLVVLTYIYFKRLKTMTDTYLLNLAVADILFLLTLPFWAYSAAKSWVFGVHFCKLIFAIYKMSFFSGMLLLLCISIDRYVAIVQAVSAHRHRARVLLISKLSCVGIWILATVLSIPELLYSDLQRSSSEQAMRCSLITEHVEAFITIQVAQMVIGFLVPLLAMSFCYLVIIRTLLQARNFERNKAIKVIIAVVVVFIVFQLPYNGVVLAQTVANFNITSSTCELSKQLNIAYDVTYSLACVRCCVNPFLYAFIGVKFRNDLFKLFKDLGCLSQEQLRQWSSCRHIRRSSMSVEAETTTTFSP
# Description: as §1
# [3] = target: 168 GPCRs (Homo sapiens, UniProt P41587)
# Description: as §1
# [4] = target: 168 GPCRs (Homo sapiens, UniProt Q8TDS4); conditions: GPR109A
# Description: as §1
# [5] = target: 168 GPCRs (Homo sapiens, UniProt P35408)
# Description: as §1
# [6] = target: 168 GPCRs (Homo sapiens, UniProt P49019); conditions: GPR109B
# Description: as §1
# [7] = target: 168 GPCRs (Homo sapiens, UniProt P51685); conditions: CCR8, Agonist
# Description: as §1
# [8] = target: 168 GPCRs (Homo sapiens, UniProt P22888); conditions: LHCGR
# Description: as §1
# [9] = target: 168 GPCRs (Homo sapiens, UniProt P32302)
# Description: as §1
# [10] = target: 168 GPCRs (Homo sapiens, UniProt P21462)
# Description: as §1
# [11] = target: 168 GPCRs (Homo sapiens, UniProt P51684); conditions: CCR6, Agonist
# Description: as §1
# [12] = target: 168 GPCRs (Homo sapiens, UniProt P46663); conditions: BDKRB1, Agonist
# Description: as §1
# [13] = target: 168 GPCRs (Homo sapiens, UniProt P35372)
# Description: as §1
# [14] = target: 168 GPCRs (Homo sapiens, UniProt P20309); conditions: CHRM3, Agonist
# Description: as §1
# [15] = target: 168 GPCRs (Homo sapiens, UniProt P30559); conditions: OXTR
# Description: as §1
# [16] = target: T2, 168 GPCRs (Homo sapiens, UniProt Q96RI0)
# T2 sequence (Q96RI0 18-385): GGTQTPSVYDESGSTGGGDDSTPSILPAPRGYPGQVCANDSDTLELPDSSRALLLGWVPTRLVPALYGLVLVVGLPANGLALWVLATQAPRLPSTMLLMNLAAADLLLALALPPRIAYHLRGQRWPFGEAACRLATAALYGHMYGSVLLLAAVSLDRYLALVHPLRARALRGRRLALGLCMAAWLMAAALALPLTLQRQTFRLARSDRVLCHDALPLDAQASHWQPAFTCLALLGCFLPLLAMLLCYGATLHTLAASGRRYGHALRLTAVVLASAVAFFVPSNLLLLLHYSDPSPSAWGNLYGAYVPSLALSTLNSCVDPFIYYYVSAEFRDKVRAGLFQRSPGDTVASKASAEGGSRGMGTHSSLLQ
# Description: as §1
# [17] = target: 168 GPCRs (Homo sapiens, UniProt O43613)
# Description: as §1
# [18] = target: 168 GPCRs (Homo sapiens, UniProt P34972)
# Description: as §1
# Sequence of 168 GPCRs (Homo sapiens, UniProt P35372) (P35372 whole entry): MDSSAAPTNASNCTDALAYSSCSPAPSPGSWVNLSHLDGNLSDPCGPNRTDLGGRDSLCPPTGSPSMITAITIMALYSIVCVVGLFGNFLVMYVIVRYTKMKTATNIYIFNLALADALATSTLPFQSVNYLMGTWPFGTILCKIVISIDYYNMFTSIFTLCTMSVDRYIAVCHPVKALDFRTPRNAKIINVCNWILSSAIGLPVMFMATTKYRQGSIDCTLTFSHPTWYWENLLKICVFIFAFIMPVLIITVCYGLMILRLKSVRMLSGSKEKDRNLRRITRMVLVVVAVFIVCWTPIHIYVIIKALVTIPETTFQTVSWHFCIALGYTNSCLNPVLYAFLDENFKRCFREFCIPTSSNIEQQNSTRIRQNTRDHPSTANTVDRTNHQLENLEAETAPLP
# Sequence of 168 GPCRs (Homo sapiens, UniProt Q8TDS4) (Q8TDS4 whole entry): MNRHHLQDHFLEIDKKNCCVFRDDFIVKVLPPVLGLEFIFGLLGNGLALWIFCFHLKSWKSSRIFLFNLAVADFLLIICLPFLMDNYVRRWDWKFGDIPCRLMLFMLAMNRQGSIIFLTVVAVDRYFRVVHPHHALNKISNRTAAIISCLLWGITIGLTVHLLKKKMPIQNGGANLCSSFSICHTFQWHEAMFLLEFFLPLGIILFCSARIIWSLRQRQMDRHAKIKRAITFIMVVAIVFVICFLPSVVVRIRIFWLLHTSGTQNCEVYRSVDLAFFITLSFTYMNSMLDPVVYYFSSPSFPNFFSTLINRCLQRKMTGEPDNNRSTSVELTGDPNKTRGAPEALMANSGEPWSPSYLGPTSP
# Sequence of 168 GPCRs (Homo sapiens, UniProt P46663) (P46663 whole entry): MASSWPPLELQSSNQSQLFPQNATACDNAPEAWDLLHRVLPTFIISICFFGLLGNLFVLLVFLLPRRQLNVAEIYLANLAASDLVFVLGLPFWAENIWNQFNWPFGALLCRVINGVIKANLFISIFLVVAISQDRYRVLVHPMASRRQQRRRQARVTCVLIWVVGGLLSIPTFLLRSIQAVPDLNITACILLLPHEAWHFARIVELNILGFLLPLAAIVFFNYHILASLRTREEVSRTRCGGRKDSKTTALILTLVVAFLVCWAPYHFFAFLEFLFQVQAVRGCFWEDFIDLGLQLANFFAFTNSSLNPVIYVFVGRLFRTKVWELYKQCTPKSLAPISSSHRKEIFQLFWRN
# Sequence of 168 GPCRs (Homo sapiens, UniProt P21462) (P21462 whole entry): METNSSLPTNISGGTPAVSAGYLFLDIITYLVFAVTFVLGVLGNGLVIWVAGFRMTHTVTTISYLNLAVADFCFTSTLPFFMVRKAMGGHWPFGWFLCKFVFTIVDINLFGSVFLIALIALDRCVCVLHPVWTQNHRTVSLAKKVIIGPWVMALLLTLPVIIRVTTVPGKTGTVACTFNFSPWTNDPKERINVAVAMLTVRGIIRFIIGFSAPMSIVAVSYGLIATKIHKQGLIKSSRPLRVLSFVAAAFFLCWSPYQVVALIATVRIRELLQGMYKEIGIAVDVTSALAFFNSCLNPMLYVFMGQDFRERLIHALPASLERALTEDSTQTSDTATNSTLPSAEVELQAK
# Sequence of 168 GPCRs (Homo sapiens, UniProt P51684) (P51684 whole entry): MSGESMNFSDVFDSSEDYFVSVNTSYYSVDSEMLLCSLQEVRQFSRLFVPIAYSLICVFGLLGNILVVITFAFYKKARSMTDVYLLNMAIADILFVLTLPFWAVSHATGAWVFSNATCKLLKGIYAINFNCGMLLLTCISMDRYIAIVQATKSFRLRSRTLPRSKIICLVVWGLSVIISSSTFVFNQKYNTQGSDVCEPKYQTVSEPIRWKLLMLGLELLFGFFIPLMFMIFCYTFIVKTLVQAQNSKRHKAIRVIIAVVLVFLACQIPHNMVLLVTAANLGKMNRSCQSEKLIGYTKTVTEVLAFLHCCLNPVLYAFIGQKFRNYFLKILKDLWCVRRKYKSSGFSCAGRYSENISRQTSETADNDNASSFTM
# Sequence of 168 GPCRs (Homo sapiens, UniProt P20309) (P20309 whole entry): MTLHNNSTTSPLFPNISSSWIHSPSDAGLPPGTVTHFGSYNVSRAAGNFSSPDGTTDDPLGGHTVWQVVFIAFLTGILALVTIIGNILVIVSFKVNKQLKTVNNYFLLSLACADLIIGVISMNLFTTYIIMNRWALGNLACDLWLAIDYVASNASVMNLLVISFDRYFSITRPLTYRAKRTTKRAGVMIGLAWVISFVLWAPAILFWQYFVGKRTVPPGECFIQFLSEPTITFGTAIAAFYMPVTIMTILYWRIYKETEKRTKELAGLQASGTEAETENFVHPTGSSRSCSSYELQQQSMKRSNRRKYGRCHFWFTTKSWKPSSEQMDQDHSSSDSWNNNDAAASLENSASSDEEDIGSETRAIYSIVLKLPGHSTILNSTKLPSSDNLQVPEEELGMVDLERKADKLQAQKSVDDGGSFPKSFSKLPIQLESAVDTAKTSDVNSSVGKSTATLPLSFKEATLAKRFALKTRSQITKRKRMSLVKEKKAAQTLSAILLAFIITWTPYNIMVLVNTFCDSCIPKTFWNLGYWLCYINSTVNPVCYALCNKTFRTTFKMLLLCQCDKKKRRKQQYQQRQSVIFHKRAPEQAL
# Sequence of 168 GPCRs (Homo sapiens, UniProt P35408) (P35408 whole entry): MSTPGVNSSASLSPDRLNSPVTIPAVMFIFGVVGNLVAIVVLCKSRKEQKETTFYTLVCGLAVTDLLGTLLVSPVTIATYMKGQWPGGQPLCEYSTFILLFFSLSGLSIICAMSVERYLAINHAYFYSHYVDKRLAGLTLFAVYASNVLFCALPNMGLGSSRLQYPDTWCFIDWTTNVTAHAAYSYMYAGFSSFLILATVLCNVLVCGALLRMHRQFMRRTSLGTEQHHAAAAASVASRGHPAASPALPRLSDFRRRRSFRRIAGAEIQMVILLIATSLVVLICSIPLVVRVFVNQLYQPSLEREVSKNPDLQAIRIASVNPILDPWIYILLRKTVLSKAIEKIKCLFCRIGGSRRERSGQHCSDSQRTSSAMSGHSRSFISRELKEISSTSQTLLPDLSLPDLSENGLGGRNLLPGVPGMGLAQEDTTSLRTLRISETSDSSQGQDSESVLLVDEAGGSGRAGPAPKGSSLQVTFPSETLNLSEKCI
# Sequence of 168 GPCRs (Homo sapiens, UniProt P22888) (P22888 27-699): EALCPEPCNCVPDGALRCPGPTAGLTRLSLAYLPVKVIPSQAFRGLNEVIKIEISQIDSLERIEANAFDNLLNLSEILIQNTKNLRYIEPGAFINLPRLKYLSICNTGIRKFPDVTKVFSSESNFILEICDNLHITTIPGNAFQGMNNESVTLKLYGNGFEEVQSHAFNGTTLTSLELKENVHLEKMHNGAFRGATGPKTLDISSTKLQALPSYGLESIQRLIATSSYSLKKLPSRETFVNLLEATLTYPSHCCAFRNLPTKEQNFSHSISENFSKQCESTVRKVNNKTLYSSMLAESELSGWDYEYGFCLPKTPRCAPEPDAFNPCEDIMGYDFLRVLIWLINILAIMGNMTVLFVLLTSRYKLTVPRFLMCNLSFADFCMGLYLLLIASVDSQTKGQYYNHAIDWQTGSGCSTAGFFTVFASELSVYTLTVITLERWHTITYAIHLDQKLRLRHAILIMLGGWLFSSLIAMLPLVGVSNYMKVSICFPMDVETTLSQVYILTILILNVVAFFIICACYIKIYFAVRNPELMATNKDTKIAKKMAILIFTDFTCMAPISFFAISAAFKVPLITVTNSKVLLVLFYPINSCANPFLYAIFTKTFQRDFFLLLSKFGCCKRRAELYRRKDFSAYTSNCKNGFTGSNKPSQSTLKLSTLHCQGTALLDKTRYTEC
# Sequence of 168 GPCRs (Homo sapiens, UniProt P43115) (P43115 whole entry): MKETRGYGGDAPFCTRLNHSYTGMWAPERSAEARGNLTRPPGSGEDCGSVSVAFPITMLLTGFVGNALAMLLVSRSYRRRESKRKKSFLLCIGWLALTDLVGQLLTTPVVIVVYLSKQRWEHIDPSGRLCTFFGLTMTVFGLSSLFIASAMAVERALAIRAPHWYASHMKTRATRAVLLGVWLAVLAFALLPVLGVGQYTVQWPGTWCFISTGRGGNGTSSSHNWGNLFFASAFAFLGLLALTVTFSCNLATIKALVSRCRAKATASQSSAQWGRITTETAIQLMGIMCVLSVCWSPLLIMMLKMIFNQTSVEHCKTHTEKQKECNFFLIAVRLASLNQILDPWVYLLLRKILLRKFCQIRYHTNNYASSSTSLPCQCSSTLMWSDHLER
# Sequence of 168 GPCRs (Homo sapiens, UniProt P51685) (P51685 whole entry): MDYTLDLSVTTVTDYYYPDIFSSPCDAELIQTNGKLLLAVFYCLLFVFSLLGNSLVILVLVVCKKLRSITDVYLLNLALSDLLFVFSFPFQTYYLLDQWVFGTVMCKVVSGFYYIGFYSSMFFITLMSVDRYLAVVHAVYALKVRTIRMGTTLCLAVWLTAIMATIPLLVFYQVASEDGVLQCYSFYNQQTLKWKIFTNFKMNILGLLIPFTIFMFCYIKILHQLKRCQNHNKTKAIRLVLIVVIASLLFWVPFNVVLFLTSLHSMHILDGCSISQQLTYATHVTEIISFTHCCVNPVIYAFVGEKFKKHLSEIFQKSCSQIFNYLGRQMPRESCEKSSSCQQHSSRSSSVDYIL
# Sequence of 168 GPCRs (Homo sapiens, UniProt P32302) (P32302 whole entry): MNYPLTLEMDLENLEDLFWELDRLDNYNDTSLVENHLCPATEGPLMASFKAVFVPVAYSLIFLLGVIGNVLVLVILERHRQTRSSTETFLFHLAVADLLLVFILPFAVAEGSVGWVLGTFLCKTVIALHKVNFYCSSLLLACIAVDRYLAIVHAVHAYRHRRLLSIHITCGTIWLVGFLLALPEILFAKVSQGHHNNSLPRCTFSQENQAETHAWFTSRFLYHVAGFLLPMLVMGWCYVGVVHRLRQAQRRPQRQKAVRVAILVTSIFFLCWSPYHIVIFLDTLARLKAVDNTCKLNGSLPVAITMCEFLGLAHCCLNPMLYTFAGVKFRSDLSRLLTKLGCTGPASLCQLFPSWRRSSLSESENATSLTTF
compound,measurement,setting,value
"CNC(C)C(=O)c1ccc2c(c1)OCO2 (stereo not drawn) [methylone, 3,4-methylenedioxy-N-methylcathinone]",activity at 10 µM,"[1]; PTGER3, Agonist mode, 10 uM",1.9%
same,activity at 1 µM,"[1]; PTGER3, Agonist, 1 uM",4.5%
same,activity at 1 µM,[2]; 1 uM,-3.4%
same,activity at 10 µM,[2]; 10 uM,-3.7%
same,activity at 10 µM,"[3]; VIPR2, Agonist mode, 10 uM",-0.3%
same,activity at 1 µM,"[3]; VIPR2, Agonist, 1 uM",-0.4%
same,activity at 10 µM,"[4]; Agonist mode, 10 uM",-4.3%
same,activity at 1 µM,"[4]; Agonist, 1 uM",-8.7%
same,activity at 10 µM,"[5]; PTGER4, Agonist mode, 10 uM",-1.4%
same,activity at 1 µM,"[5]; PTGER4, Agonist, 1 uM",-2.8%
same,activity at 10 µM,"[6]; Agonist mode, 10 uM",0.5%
same,activity at 1 µM,"[6]; Agonist, 1 uM",1%
same,activity at 1 µM,[7]; 1 uM,-0.2%
same,activity at 10 µM,[7]; 10 uM,-0.6%
same,activity at 10 µM,"[8]; Agonist mode, 10 uM",0.4%
same,activity at 1 µM,"[8]; Agonist, 1 uM",0.4%
same,activity at 10 µM,"[9]; CXCR5, Agonist mode, 10 uM",1.4%
same,activity at 1 µM,"[9]; CXCR5, Agonist, 1 uM",2.5%
same,activity at 10 µM,"[10]; FPR1, Agonist mode, 10 uM",0.5%
same,activity at 1 µM,"[10]; FPR1, Agonist, 1 uM",2.2%
same,activity at 1 µM,[11]; 1 uM,-2.9%
same,activity at 10 µM,[11]; 10 uM,-3.3%
same,activity at 1 µM,[12]; 1 uM,-1.7%
same,activity at 10 µM,[12]; 10 uM,-2.5%
same,activity at 10 µM,"[13]; OPRM1, OPRM1, Agonist mode, 10 uM",0.5%
same,activity at 1 µM,"[13]; OPRM1, OPRM1, Agonist, 1 uM",0.2%
same,activity at 1 µM,[14]; 1 uM,6%
same,activity at 10 µM,[14]; 10 uM,6%
same,activity at 10 µM,"[15]; Agonist mode, 10 uM",-0.5%
same,activity at 1 µM,"[15]; Agonist, 1 uM",-0.6%
same,activity at 10 µM,"[16]; F2RL3, Agonist mode, 10 uM",7%
same,activity at 1 µM,"[16]; F2RL3, Agonist, 1 uM",4.3%
same,activity at 10 µM,"[17]; HCRTR1, Agonist mode, 10 uM",-0.1%
same,activity at 1 µM,"[17]; HCRTR1, Agonist, 1 uM",-0.1%
same,activity at 10 µM,"[18]; CNR2, Agonist mode, 10 uM",3.2%
same,activity at 1 µM,"[18]; CNR2, Agonist, 1 uM",7%
